# Laboratory results: patent US20190263796A1, “LIM KINASE INHIBITORS, PHARMACEUTICAL COMPOSITION AND METHOD OF USE IN LIMK-MEDIATED DISEASES” (CELLIPSE, priority 2016, published 2019)
# pIC50: −log10 of the molar value. Where two headings read alike, the source gives them in different places.
# Tests used:
# [1] = system: Phospho-Ser3-Cofilin/Total Cofilin; test: Western blot cofilin phosphorylation, MOLM-14; type: cell-based; conditions: MOLM-14 cells; 2 h
# Method: (§1) MOLM-14 cell line was originally purchased from the American Type Culture Collection (ATCC). MOLM-14 cells are cultured in MEM alpha 10% (v/v) FBS supplemented with 100 U/mL^−1 penicillin, 0.1 mg·mL^−1 streptomycin (PAN Biotech P06-07100). Cells were maintained at 37° C. with 5% CO2.
# (§2) In a 6 wells plate (Falcon 353046), 2·10^6 cells in 1.5 mL medium are treated for 2 h with compounds. Cells are then collected and cell lysis is performed at 4° C. using RIPA buffer supplemented with protease inhibitors cocktail (Sigma-Aldrich P8340) and phosphatase inhibitors cocktail (Sigma-Aldrich P5726). Following centrifugation 30 min 15000 g 4° C., supernatants are mixed with Laemmli buffer and denaturation is performed by heating 5 min 95° C. 10 μL of samples are subjected to electrophoresis on 15% SDS-PAGE. After electro-transfer (Mini Transblot, Bio-Rad), the PVDF membrane (Merck-Millipore Immobilon P IPVH00010) is blocked with Tris Buffered Saline, pH 7.4 (TBS) with 0.1% Tween 20 and 5% BSA for 1 h RT under agitation. The membrane was rinsed 3 times 10 min at room temperature under agitation with TBS, 0.1% Tween-20 (TBST) and then 1 h at room temperature with anti-phospho-Ser3-cofilin (Cell Signaling Technology #3313, 1/1000 dilution) antibody or anti-cofilin (Cell Signaling Technology #3312, 1/1000 dilution) diluted in TBS, 0.1% Tween 20 and 1% BSA. The membrane is then rinsed 3 times 10 min at room temperature under agitation in TBST and incubated for 1 h with anti-rabbit secondary antibody, horseradish peroxidase conjugated (Jackson Immunoresearch #711-036-152) under agitation at room temperature. After three washes 10 min at room temperature in TBST, the detection of total or phosphorylated cofilin was performed using chemiluminescence kit ECL™ Plus (GE Healthcare RPN2132). For each concentration of compound, ratio between phosphorylated cofilin and total cofilin is determined. This ratio is then expressed as percentage of control ratio (i.e., ratio from DMSO treated cells). IC50 Phospho-Ser3-Cofilin/Total Cofilin is then determined.
# [2] = system: Phospho-Ser3-Cofilin/Total Cofilin; test: Western blot cofilin phosphorylation, HL-60; type: cell-based; conditions: Homo sapiens; HL-60 cells; 2 h
# Method: (§3) HL-60 cell line was originally purchased from the Leibniz-Institut Deutsche Sammlung von Mikroorganismen und Zellkulturen GmbH (DSMZ). HL-60 cells are cultured in RPMI 1640 10% (v/v) FBS supplemented with 100 U/mL^−1 penicillin, 0.1 mg·mL^−1 streptomycin (PAN Biotech P06-07100). Cells were maintained at 37° C. with 5% CO2.
# as §2
# [3] = system: Phospho-Ser3-Cofilin/Total Cofilin; test: Western blot cofilin phosphorylation, Kasumi-1; type: cell-based; conditions: Homo sapiens; Kasumi-1 cells; 2 h
# Method: (§4) Kasumi-1 cell line was originally purchased from the American Type Culture Collection (ATCC). Kasumi-1 cells are cultured in RPMI 1640 20% (v/v) FBS supplemented with 100 U/mL^−1 penicillin, 0.1 mg·mL^−1 streptomycin (PAN Biotech P06-07100). Cells were maintained at 37° C. with 5% CO2.
# In a 6 wells plate (Falcon 353046), 2·10^6 cells in 1.5 mL medium are treated for 2 h with compounds. Cells are then collected and cell lysis is performed at 4° C. using RIPA buffer supplemented with protease inhibitors cocktail (Sigma-Aldrich P8340) and phosphatase inhibitors cocktail (Sigma-Aldrich P5726). Following centrifugation 30 min 15000 g 4° C., supernatants are mixed with Laemmli buffer and denaturation is performed by heating 5 min 95° C. 10 μL of samples are subjected to electrophoresis on 15% SDS-PAGE. After electro-transfer (Mini Transblot, Bio-Rad), the PVDF membrane (Merck-Millipore Immobilon P IPVH00010) is blocked with Tris Buffered Saline, pH 7.4 (TBS) with 0.1% Tween 20 and 5% BSA for 1 h RT under agitation. […] For each concentration of compound, ratio between phosphorylated cofilin and total cofilin is determined. This ratio is then expressed as percentage of control ratio (i.e., ratio from DMSO treated cells). IC50 Phospho-Ser3-Cofilin/Total Cofilin is then determined.
# [4] = system: Phospho-Ser3-Cofilin/Total Cofilin; test: Western blot cofilin phosphorylation, MOLM-13; type: cell-based; conditions: MOLM-13 cells; 2 h
# Method: as §3, with “MOLM-13” for “HL-60”, “20%” for “10%”
# as §2
# [5] = system: P-MEK/Total MEK; test: Western blot MEK1 phosphorylation, MOLM-14; type: cell-based; conditions: read-out: IC50 P-MEK/Total MEK; MOLM-14 cells; 2 h
# Method: as §1
# (§5) In a 6 wells plate (Falcon 353046), 2·10^6 cells in 1.5 mL medium are treated for 2 h with compounds. Cells are then collected and cell lysis is performed at 4° C. using RIPA buffer supplemented with protease inhibitors cocktail (Sigma-Aldrich P8340) and phosphatase inhibitors cocktail (Sigma-Aldrich P5726). Following centrifugation 30 min 15000 g 4° C., supernatants are mixed with Laemmli buffer and denaturation is performed by heating 5 min 95° C. 10 μL of samples are subjected to electrophoresis on 15% SDS-PAGE. After electro-transfer (Mini Transblot, Bio-Rad), the PVDF membrane (Merck-Millipore Immobilon P IPVH00010) is blocked with Tris Buffered Saline, pH 7.4 (TBS) with 0.1% Tween 20 and 5% BSA for 1 h at room temperature under agitation. The membrane was rinsed 3 times 10 min at room temperature under agitation with TBS, 0.1% Tween-20 (TBST) and then 1 h at room temperature with anti-phospho-Ser218/222-MEK1 (Merck-Millipore 07-461, 1/1000 dilution) antibody or anti-MEK1 (Merck-Millipore 07-641, 1/1000 dilution) diluted in TBS, 0.1% Tween 20 and 1% BSA. The membrane is then rinsed 3 times 10 min RT under agitation in TBST and incubated for 1 h with anti-rabbit secondary antibody, horseradish peroxidase conjugated (Jackson Immunoresearch #711-036-152) under agitation at room temperature. After three washes 10 min at room temperature in TBST, the detection of total or phosphorylated cofilin was performed using chemiluminescence kit ECL™ Plus (GE Healthcare RPN2132). For each concentration of compound, ratio between phosphorylated cofilin and total cofilin is determined. This ratio is then expressed as percentage of control ratio (i.e., ratio from DMSO treated cells). IC50 P-MEK/Total MEK is then determined.
# (§6) Selectivity ratios are calculated by dividing the IC50 P-MEK/Total MEK value (μM) by the IC50 Phospho-Ser3-Cofilin/Total Cofilin value (μM).
# [6] = system: P-MEK/Total MEK; test: Western blot MEK1 phosphorylation, HL-60; type: cell-based; conditions: Homo sapiens, HL-60, 2 h, read-out: IC50 P-MEK/Total MEK
# Method: as §3, §5, §6
# [7] = system: P-MEK/Total MEK; test: Western blot MEK1 phosphorylation, Kasumi-1; type: cell-based; conditions: Homo sapiens, Kasumi 1, 2 h, read-out: IC50 P-MEK/Total MEK
# Method: Cells were maintained at 37° C. with 5% CO2.
# as §5, §6
# [8] = system: P-MEK/Total MEK; test: Western blot MEK1 phosphorylation, MOLM-13; type: cell-based; conditions: read-out: IC50 P-MEK/Total MEK; MOLM-13 cells; 2 h
# Method: as §3, with “MOLM-13” for “HL-60”, “20%” for “10%”
# as §5, §6
# [9] = system: Phospho-Ser3-Cofilin/Total Cofilin; test: Western blot of cellular cofilin phosphorylation status, MV4-11 (II.4); type: cell-based; conditions: Homo sapiens; MV4-11 cells; 2 h treatment
# Method: as §4, with “MV4-11” for “Kasumi-1”, “10%” for “20%”, “P06-07100) and 2 mM Glutamine (Sigma-Aldrich 59202C).” for “P06-07100).”
# as §2, with “10 min RT under agitation” for “10 min at room temperature under agitation”, “1 h RT with anti-phospho-Ser3-cofilin” for “1 h at room temperature with anti-phospho-Ser3-cofilin”, “for 1 hour with anti-rabbit” for “for 1 h with anti-rabbit”, “10 min RT in TBST,” for “10 min at room temperature in TBST,”, “control ratio (i.e ratio from” for “control ratio (i.e., ratio from”, “cells). IC50 is then” for “cells). IC50 Phospho-Ser3-Cofilin/Total Cofilin is then”
# [10] = molecular target: LIMK1(h) (Homo sapiens, UniProt P53667); test: LIMK1 kinase assay (Eurofins Panlabs, radiometric); type: biochemical; set-up: purchased Eurofins Panlabs Inc. (contract assay service); conditions: 15 μM ATP, read-out: IC50 LIMK1
# Method: Compounds were tested in a LIMK1 assay performed by Eurofins Panlabs Inc. LIMK1 (h) is incubated with 8 mM MOPS pH 7.0, 0.2 mM EDTA, 0.6 mg/mL cofilin, 10 mM Magnesium acetate and [gamma-33P]-ATP. The reaction is initiated by the addition of the Mg/ATP mix. After incubation for 40 min at room temperature, the reaction is stopped by the addition of phosphoric acid to a concentration of 0.5%. […] IC50 LIMK1 is then determined.
# [11] = molecular target: B-Raf(h) (Homo sapiens, UniProt P15056); test: B-Raf kinase assay (Eurofins Panlabs, radiometric); type: biochemical; set-up: purchased Eurofins Panlabs Inc. (contract assay service); conditions: Table 8; for pIC50: 120 μM ATP, read-out: IC50 B-Raf; for Selectivity ratio: IC50 B-Raf (nM) divided by IC50 LIMK1 (nM)
# Method: IC50 B-Raf is then determined.
# Selectivity ratios are calculated by dividing the IC50 B-Raf (nM) by the IC50 LIMK1 (nM).
# LIMK1(h), sequence (P53667 whole entry): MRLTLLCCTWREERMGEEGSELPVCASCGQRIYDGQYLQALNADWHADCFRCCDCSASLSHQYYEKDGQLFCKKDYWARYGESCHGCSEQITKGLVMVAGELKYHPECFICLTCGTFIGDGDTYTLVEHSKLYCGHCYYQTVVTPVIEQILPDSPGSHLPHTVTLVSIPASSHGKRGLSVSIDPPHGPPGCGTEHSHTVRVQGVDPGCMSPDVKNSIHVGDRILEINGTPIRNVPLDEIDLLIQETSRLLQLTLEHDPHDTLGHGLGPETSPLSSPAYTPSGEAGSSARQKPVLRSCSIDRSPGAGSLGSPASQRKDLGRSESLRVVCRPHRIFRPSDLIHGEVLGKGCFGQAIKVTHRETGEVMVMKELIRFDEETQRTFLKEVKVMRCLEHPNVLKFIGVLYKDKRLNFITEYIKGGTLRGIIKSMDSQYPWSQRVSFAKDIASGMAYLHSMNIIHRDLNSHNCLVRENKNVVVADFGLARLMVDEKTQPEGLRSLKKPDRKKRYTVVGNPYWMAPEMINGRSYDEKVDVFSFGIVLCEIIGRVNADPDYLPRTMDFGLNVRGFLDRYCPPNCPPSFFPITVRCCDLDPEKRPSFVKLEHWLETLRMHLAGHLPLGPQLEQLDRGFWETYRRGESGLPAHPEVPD
# B-Raf(h), sequence (P15056 whole entry): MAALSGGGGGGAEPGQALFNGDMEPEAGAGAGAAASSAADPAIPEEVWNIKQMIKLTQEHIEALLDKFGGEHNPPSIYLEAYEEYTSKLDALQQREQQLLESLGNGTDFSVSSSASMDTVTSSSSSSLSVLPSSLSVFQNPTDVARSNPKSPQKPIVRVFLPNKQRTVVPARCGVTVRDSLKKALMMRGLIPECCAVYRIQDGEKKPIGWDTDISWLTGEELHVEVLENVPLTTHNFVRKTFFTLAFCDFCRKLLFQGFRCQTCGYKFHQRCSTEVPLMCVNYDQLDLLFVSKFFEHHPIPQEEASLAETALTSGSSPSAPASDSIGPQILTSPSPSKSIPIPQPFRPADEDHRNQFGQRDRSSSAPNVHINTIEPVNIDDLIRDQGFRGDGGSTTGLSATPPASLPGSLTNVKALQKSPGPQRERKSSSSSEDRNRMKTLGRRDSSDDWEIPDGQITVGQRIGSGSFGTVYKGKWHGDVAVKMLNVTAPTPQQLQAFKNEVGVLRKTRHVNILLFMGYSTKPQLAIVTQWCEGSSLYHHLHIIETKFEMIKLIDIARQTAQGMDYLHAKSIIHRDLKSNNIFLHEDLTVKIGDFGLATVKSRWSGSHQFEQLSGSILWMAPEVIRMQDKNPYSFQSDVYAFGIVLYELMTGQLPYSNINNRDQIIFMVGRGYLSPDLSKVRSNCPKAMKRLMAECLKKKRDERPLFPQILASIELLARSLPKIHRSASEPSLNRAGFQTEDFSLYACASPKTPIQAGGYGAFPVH
compound,measurement,setting,value
CNC(=O)Cc1nc(-c2cccc(NS(=O)(=O)c3c(F)cccc3F)c2F)c(-c2ccnc(Nc3ccccc3)n2)s1 [9 (Na)],pIC50,[1],> 6.70
same,pIC50,[2],6.00 to 6.70
same,pIC50,[3],6.00 to 6.70
same,pIC50,[4],6.00 to 6.70
same,pIC50,[5],6.00 to 6.70
same,pIC50,[6],< 6.00
same,pIC50,[7],< 6.00
same,pIC50,[8],< 6.00
"CCOC(=O)Cc1nc(-c2cccc(NS(=O)(=O)c3c(F)cccc3F)c2F)c(-c2ccnc(Nc3ccccc3)n2)s1 [Compound 2, ethyl 2-(4-(3-(2,6-difluorophenylsulfonamido)-2-fluorophenyl)-5-(2-(phenylamino)pyrimidin-4-yl)thiazol-2-yl)acetate]",pIC50,[9],< 6.00
same,pIC50,[10]; Table 2,> 8.00
same,pIC50,[11],7.00 to 8.00
same,Selectivity ratio,[11],4
"CCCS(=O)(=O)Nc1cccc(-c2nc(C(C)(C)C)sc2-c2ccnc(Nc3ccccc3)n2)c1F [Compound 3, N-(3-(2-(tert-butyl)-5-(2-(phenylamino)pyrimidin-4-yl)thiazol-4-yl)-2-fluorophenyl)propane-1-sulfonamide]",pIC50,[9],> 6.70
same,pIC50,[10]; Table 2,6.30 to 7.00
"CC(C)(C)c1nc(-c2cccc(NS(=O)(=O)CCC(F)(F)F)c2F)c(-c2ccnc(Nc3ccccc3)n2)s1 [Compound 4, N-(3-(2-(tert-butyl)-5-(2-(phenylamino)pyrimidin-4-yl)thiazol-4-yl)-2-fluorophenyl)-3,3,3-trifluoropropane-1-sulfonamide]",pIC50,[9],6.00 to 6.70
same,pIC50,[10]; Table 2,6.30 to 7.00
"CC(C)(C)c1nc(-c2cccc(NC(=O)C(=O)c3c(F)cccc3F)c2F)c(-c2ccnc(Nc3ccccc3)n2)s1 [Compound 5, N-(3-(2-(tert-butyl)-5-(2-(phenylamino)pyrimidin-4-yl)thiazol-4-yl)-2-fluorophenyl)-2-(2,6-difluorophenyl)-2-oxoacetamide]",pIC50,[10]; Table 2,6.30 to 7.00
same,pIC50,[10]; Table 8,5.30 to 6.30
same,pIC50,[11],5.30 to 6.30
same,Selectivity ratio,[11],11
"CC(C)(C)OC(=O)Nc1cccc(-c2nc(C(C)(C)C)sc2-c2ccnc(Nc3ccccc3)n2)c1F [Compound 6, tert-butyl (3-(2-(tert-butyl)-5-(2-(phenylamino)pyrimidin-4-yl)thiazol-4-yl)-2-fluorophenyl)carbamate]",pIC50,[9],< 6.00
same,pIC50,[10]; Table 2,5.30 to 6.30
same,pIC50,[11],5.30 to 6.30
same,Selectivity ratio,[11],16
"CC(C)(C)c1nc(-c2cccc(NS(=O)(=O)c3c(F)cccc3F)c2F)c(-c2ncnc3[nH]ccc23)s1 [Compound 7, N-(3-(2-(tert-butyl)-5-(7H-pyrrolo[2,3-d]pyrimidin-4-yl)thiazol-4-yl)-2-fluorophenyl)-2,6-difluorobenzenesulfonamide]",pIC50,[9],6.00 to 6.70
same,pIC50,[10]; Table 2,5.30 to 6.30
"CC(C)(C)c1nc(-c2cccc(NS(=O)(=O)C3CC3)c2F)c(-c2ccnc(Nc3ccccc3)n2)s1 [Compound 10, N-(3-(2-(tert-butyl)-5-(2-(phenylamino)pyrimidin-4-yl)thiazol-4-yl)-2-fluorophenyl)cyclopropanesulfonamide]",pIC50,[10]; Table 2,6.30 to 7.00
